Among the data in patent US8809526B2, “Synthesis of cyclopentaquinazolines” (ONYX Pharmaceuticals, Inc., priority 2010, dated 2014) are solubility values, retold here.

The nature of the series: physchem. It is filed as physicochemical. The conditions noted are these: organic solvent or mixture. The protocol:
A 22 L, 3 neck flask was equipped with an overhead stirrer, a N2 inlet, and a type-J Teflon® covered thermocouple. The flask was purged with N2 and charged with the crude alcohol 12 prepared above, acetonitrile (7 L) and triethylamine (1400 mL, 10.0 mol). The batch was cooled to ˜10° C.-15° C. using a cold water bath. To the resulting yellow-green suspension was added solid TBDMSCl (1125 g, 7.50 mol), portionwise over ˜20 minutes. The addition was mildly exothermic causing the internal reaction temperature to rise to ˜20° C. After the addition was complete the reaction was stirred overnight at 20° C. under an atmosphere of N2. The following morning the reaction was judged to be >95% complete by TLC or HPLC. The dark green reaction mixture was filtered through a plasticware filter pot (24″×11″) prepacked with gravity grade silica gel (3 kg-slurried in acetonitrile) and a top and bottom layer of celite 21 (500 grams each). The filter pot was rinsed with acetonitrile (10 L, ACS grade) prior to adding the reaction mixture to the pot. Once the reaction mixture containing green solids was added, the filter pot was rinsed with acetonitrile (80 L, ACS grade), collecting 10 L cuts. The washing operation was monitored by TLC until no more product was detected in the washings. This was concentrated in vacuo to afford 2.2 kg of crude which needed to be purified further by silica gel chromatography. […]

Converted amounts (≈) assume the structure as drawn.

What is called solubility is the dissolved amount per volume that the medium holds. In the case of `CC(C)(C)[Si](C)(C)OCc1nc2cc3c(cc2c(=O)[nH]1)C(=O)CC3` [compound 7, 2-(t-Butyldimethylsiloxymethyl)-4,6-dioxo-3,4,7,8-tetrahydro-3H-cyclopenta[g]quinazoline], the solubility runs as follows: (solubility in 1:1 hexanes:ethyl acetate) 15 mg/mL (≈ 43.5 mM); (solubility in ethyl acetate) roughly 25 mg/mL (≈ 72.6 mM).
